Data on 1 molecule can be found in the NIST ThermoML archive (doi:10.1021/je049913p).

SMILES strings stand for the structures. Numbers after ± are expanded uncertainties.

The conditions of data set [1]: Crystal; Adiabatic calorimetry.
A short description of data set [2]: Molar enthalpy of transition or fusion. The settings on record: Crystal; Adiabatic calorimetry.

For `[Bi]` [bismuth], in data set [1], the Triple point temperature is on record as 544.56 ± 0.005 K. In addition, the “Molar enthalpy of transition or fusion” value in data set [2] came out at 2.655 ± 0.00406 kcal/mol.
